Source: ChEMBL document CHEMBL3046062, “Anti-HIV, antimycobacterial and antimicrobial studies of newly synthesized 1,2,4-triazole clubbed benzothiazoles” (Med Chem Res, 2013)
≈ marks a conversion by molar mass, not a printed value.

What was measured:
[1] = Selectivity index, ratio of CC50 for human MT4 cells to IC50 for HIV1 3B; format: functional
[2] = Cytotoxicity against Homo sapiens (human) MT4 cells after 5 days by MTT assay; format: cell-based
[3] = tested on: Human immunodeficiency virus 1; test: Antiviral activity against Human immunodeficiency virus 1 IIIB infected MT4 cells assessed as inhibition of virus-induced cytopathogenicity after 5 days by MTT assay; format: functional, organism-based; conditions: MT4, 120 h
[4] = Selectivity index, ratio of CC50 for human MT4 cells to IC50 for HIV2 ROD; format: functional
[5] = tested on: Human immunodeficiency virus 2; test: Antiviral activity against Human immunodeficiency virus type 2 (ISOLATE ROD) infected MT4 cells assessed as inhibition of virus-induced cytopathogenicity after 5 days by MTT assay; format: functional, organism-based; conditions: Human immunodeficiency virus 2, ISOLATE ROD, MT4, 120 h

SMILES | Ratio CC50/IC50 [1] | CC50 at 120 h [2] | IC50 [3] | Ratio CC50/IC50 [4] | IC50 [5]
NNc1nc2ccc(F)cc2s1 | <1 | 13.8 µg/mL (≈ 75.2 µM) | > 13.8 µg/mL | <1 | > 13.8 µg/mL
NNc1nc2ccc(Br)cc2s1 | <1 | 8.01 µg/mL (≈ 32.8 µM) | > 8.01 µg/mL | <1 | > 8.01 µg/mL
NNc1nc2ccc([N+](=O)[O-])cc2s1 | <1 | 12.8 µg/mL (≈ 60.9 µM) | > 12.8 µg/mL | <1 | > 12.8 µg/mL
Cc1ccc2nc(NN)sc2c1 | <1 | 4.52 µg/mL (≈ 25.2 µM) | > 4.52 µg/mL | <1 | > 4.52 µg/mL
COc1ccc2nc(NN)sc2c1 | <1 | 14.8 µg/mL (≈ 75.7 µM) | > 14.8 µg/mL | <1 | > 14.8 µg/mL
NNc1nc2ccc(Cl)cc2s1 | <1 | 2.48 µg/mL (≈ 12.4 µM) | > 2.48 µg/mL | <1 | > 2.48 µg/mL
Cc1cccc2sc(NN)nc12 | <1 | 9.8 µg/mL (≈ 54.7 µM) | > 9.8 µg/mL | <1 | > 9.8 µg/mL
NNc1nc2c([N+](=O)[O-])cccc2s1 | <1 | 14.5 µg/mL (≈ 68.9 µM) | > 14.5 µg/mL | <1 | > 14.5 µg/mL
NNc1nc2cc(Cl)c(Cl)cc2s1 | <1 | 80 µg/mL (≈ 342 µM) | > 80 µg/mL | <1 | > 80 µg/mL
NNc1nc2c(Cl)cccc2s1 | 1 | 117 µg/mL (≈ 586 µM) | > 117 µg/mL | 1 | > 117 µg/mL
O=[N+]([O-])c1ccc(-c2nnc(-c3cccnc3)n2Nc2nc3ccc(F)cc3s2)cc1 | 1 | ≥ 108 µg/mL | > 108 µg/mL | 1 | > 108 µg/mL
O=[N+]([O-])c1ccc(-c2nnc(-c3cccnc3)n2Nc2nc3ccc(Br)cc3s2)cc1 | <1 | 13.2 µg/mL (≈ 26.7 µM) | > 13.2 µg/mL | <1 | > 13.2 µg/mL
O=[N+]([O-])c1ccc(-c2nnc(-c3cccnc3)n2Nc2nc3ccc([N+](=O)[O-])cc3s2)cc1 | <1 | 50.8 µg/mL (≈ 110 µM) | > 50.8 µg/mL | <1 | > 50.8 µg/mL
Cc1ccc2nc(Nn3c(-c4ccc([N+](=O)[O-])cc4)nnc3-c3cccnc3)sc2c1 | <1 | 64.4 µg/mL (≈ 150 µM) | > 64.4 µg/mL | <1 | > 64.4 µg/mL
COc1ccc2nc(Nn3c(-c4ccc([N+](=O)[O-])cc4)nnc3-c3cccnc3)sc2c1 | <1 | 12.9 µg/mL (≈ 29 µM) | > 12.9 µg/mL | <1 | > 12.9 µg/mL
O=[N+]([O-])c1ccc(-c2nnc(-c3cccnc3)n2Nc2nc3ccc(Cl)cc3s2)cc1 | <1 | 53.7 µg/mL (≈ 119 µM) | > 53.7 µg/mL | <1 | > 53.7 µg/mL
Cc1cccc2sc(Nn3c(-c4ccc([N+](=O)[O-])cc4)nnc3-c3cccnc3)nc12 | <1 | 13.5 µg/mL (≈ 31.4 µM) | > 13.5 µg/mL | <1 | > 13.5 µg/mL
O=[N+]([O-])c1ccc(-c2nnc(-c3cccnc3)n2Nc2nc3c([N+](=O)[O-])cccc3s2)cc1 | <1 | 13.8 µg/mL (≈ 29.9 µM) | > 13.8 µg/mL | <1 | > 13.8 µg/mL
